# Key:
# B16F10 melanoma tumors = test: B16F10 transplanted melanoma model; assay type: in vivo, mouse; settings: guanabenz alone, 2.5 mg/kg i.p. daily from 7 days after inoculation, vs PBS and isotype; FIG. 9
# Method: Gender and age matched CD57BL/6 wild-type mice were used in the B16F10 transplanted melanoma model.
# Gender-matched, 7-9 weeks old CD57BL/6 wild-type mice were subcutaneously injected with 1 million of B16F10 tumor cells. Mice were randomized based on the tumor size one week after the injection of tumor cells. 7 days after tumor inoculation, daily injections of guanabenz (2.5 mg/kg, i.p.) or vehicle (PBS, i.p.) were administered to the mice. Mice then received 4 injections (intraperitoneally also referred to as i.p.) of a dose of 200 μg/mouse anti-PD-1 antibody (BioXcell, clone RMP1-14) or RatIgG2a isotype (clone 2A3, Bio-X-Cell) at 3-day intervals starting 1 day after guanabenz or vehicle administration.
# TiRP tumor = test: TiRP melanoma model with adoptive cell transfer of naïve P1A-specific CD8+ T cells; assay type: in vivo, mouse; settings: guanabenz 5 mg/kg i.p. daily with ACT of 2 million naïve T cells, 4 days after the ACT, vs control; FIG. 6
# Method: FIG. 6 is a histogram showing the tumor infiltration of P1A-specific CD8^+ T cells evaluated 4 days after ACT of naïve TCRP1A CD8^+ T cells by FACS in mice that received guanabenz (5 mg/kg, i.p.) or vehicle (PBS, i.p.). In the preceding experiments, before being transferred to TiRP-tumor bearing mice, the P1A-specific CD8^+ T were pre-activated in vitro by co-culture with irradiated L1210-P1A-B7.1 cells as described hereinabove. […] TiRP-tumor bearing mice were administered an adoptive cell transfer (ACT) of 2 million of naïve P1A-specific CD8^+ T cells and daily injections of guanabenz from the day of the ACT. […] Thus, when the mice were administered guanabenz, the transferred naïve CD8^+ T cells were properly primed and populated the tumor.
# [1] = tested on: Mouse TCRP1A CD8+ T cells; test: IFNγ secretion assay (ELISA), mouse T cells; assay type: cell-based; settings: guanabenz 10, 20 or 40 μM, 16 h to 24 h, co-culture with L1210-P1A-B7.1 target cells; FIG. 1B
# Method: Mouse TCRP1A CD8^+ T cells: P1A-specific (TCRP1A) CD8^+ T cells were isolated from spleens and lymph nodes of TCRP1A mice using anti-mouse CD8a (Ly-2) MicroBeads (Miltenyi Biotec). IFNγ secretion assay: CD8^+ T cells were plated at 50,000 cells per well in a 96 U plate with different concentration of guanabenz in full medium supplemented with IL2 and incubated at 37° C. overnight prior to their use in the assay on the next day. On the day of the assay, the culture supernatant was removed from the cells and the cells were washed once with complete medium to remove the drug completely. The target cells L1210-P1A-B7.1 or T2 cells loaded with WT1126-134 peptide were added to the wells at a ratio of 1:1. Control wells containing either only T cells or […] were also included for each plate. The plate was then incubated at 37° C. overnight. At the end of the incubation period the supernatant was collected and the amount of IFNγ was measured by ELISA according to manufacturer's instruction (R&D). T cells were incubated with guanabenz (10, 20, or 40 μM) for 16 h to 24 h as indicated. Mice received a daily intra-peritoneal injection of guanabenz (5 mg/kg) or vehicle (PBS) from the day of randomization (and the day of ACT when applicable) until the day of sacrifice.
# [2] = tested on: IFNγ producing CD8+ T cells; test: Immunization with ovalbumin; assay type: in vivo, C57BL/6J mice; settings: 100 μg (5 mg/kg) guanabenz with OVA/Alhydrogel, vs non-immunized control
# Method: Immunization with Ovalbumin: C57BL/6J mice were immunized once by intraperitoneal (i.p.) injection of 200 ug of OVA protein adsorbed onto Alhydrogel adjuvant 2% (Sigma) These mice were administered 100 μg (5 mg/kg) of guanabenz 2 hours before the immunization and daily after the immunization. […] Intracellular IFNγ staining: one week after the immunization, the blood and spleen of each mouse were collected. Cells derived from the spleen and blood of each immunized mouse were cultured for 1 hour in 96 well U bottomed plates at 37° C. in the presence of 10 μM OVA peptide. Brefeldin A (10 μg/mL) was added to each well and the cells were incubated for an additional 4 hours. The immune response of each mouse was evaluated by measuring the amount of IFNγ producing CD8^+ T cells using antibodies against CD8 and IFNγ. Samples were then examined by FACS Fortessa flow cytometry.
# [3] = tested on: T429.11 transplanted tumor; test: TiRP-derived T429.11 transplanted melanoma model; assay type: in vivo, mouse
# Method: TiRP-derived T429.11 transplanted melanoma model: T429.11 clone was derived from an induced Amela TiRP tumor referred to as T429. It was cloned from the T429 induced melanoma primary tumor line. Two million of T429.11 tumor cells were injected subcutaneously into recipient mice for tumor establishment (Zhu et al, Nat Commun 2017, 10; 8(1):1404).
# T cells were incubated with guanabenz (10, 20, or 40 μM) for 16 h to 24 h as indicated. Mice received a daily intra-peritoneal injection of guanabenz (5 mg/kg) or vehicle (PBS) from the day of randomization (and the day of ACT when applicable) until the day of sacrifice.
# The T429.11 transplanted melanoma model was previously shown not to respond to anti-PD-1 and anti-CTLA4 therapy (Zhu et al., Nature communications. Nov. 10 2017; 8(1):1404). T429.11 transplanted tumor bearing mice received daily injections of guanabenz (5 mg/kg, i.p.) or vehicle (PBS, i.p.) from the day when the tumor size was around 1000 mm^3 (day 1) until the day of sacrifice (day 6). […] As shown on FIG. 2B, the decreased tumor growth was accompanied with an increased tumor infiltration of CD8^+ T cells.
compound,measurement,setting,value
"NC(N)=N/N=C/c1c(Cl)cccc1Cl [guanabenz, 2-[(E)-(2,6-dichlorophenyl)methylideneamino]guanidine]",growth of B16F10 melanoma tumors,B16F10 melanoma tumors,did significantly reduce
same,tumor infiltration of P1A-specific CD8+ T cells,TiRP tumor,significantly increased
same,secretion of IFNγ (ELISA),[1],increased
same,"percentage of IFNγ producing CD8+ T cells among total CD8+ T, blood","[2]; blood cells with 10 μM OVA peptide, FIG. 8A",significant increase
same,"percentage of IFNγ producing CD8+ T cells among total CD8+ T, spleen","[2]; spleen cells with 10 μM OVA peptide, FIG. 8B",significant increase
same,tumor growth,"[3]; 5 mg/kg i.p. daily from tumor size around 1000 mm^3 (day 1) to day 6, vs vehicle, FIG. 2A",inhibited tumor growth
same,tumor infiltration of CD8+ T cells (FACS),"[3]; 5 mg/kg i.p. daily, day of sacrifice (day 6), vs vehicle, FIG. 2B",increased
